Columns and labels:
MDA 231 cells = assay: Actin reorganization in MDA 231 cells electroporated with peptide, rhodamine-phalloidin stained; assay type: cell-based, human
Description: Referring now to FIG. 2, it can be shown that treatment with an active peptide results in actin organization in human mammary epithelial tumor cells. MDA 231 cells were electroporated with SS1 (panel A) or SS12 (panel B), fixed, and rhodamine-phalloidin stained. Control epithelial tumor cells were treated with SS1 (SEQ ID NO: 9) resulting in no effect on actin-filled lamellipodia (or ruffling) characteristic of crawling cells.
MDA 231 cells are a particularly aggressive tumor cell line crawling and moving from between tissues.

rabbit muscle actin = molecular target: T1, rabbit muscle actin (Oryctolagus cuniculus, UniProt P68135); assay: In vitro bundling of actin by peptides (co-polymerization, differential centrifugation, SDS gel); assay type: biochemical
T1 construct: Purified rabbit muscle actin (Cytoskeleton Inc., Denver, Mo.); purchased Cytoskeleton Inc; host or cells: rabbit muscle
Description: The peptides in Table 2 were added to polymerised actin in vitro at different molar ratios. Centrifugation was used to separate fractions containing F-actin, G-actin and bundled actin, which were then run out on […]. Purified rabbit muscle actin (Cytoskeleton Inc., Denver, Mo.) was depolymerized in Low Salt Buffer [LSB; 5 mM Tris-HCl, pH 8.0, 0.2 mM CaCl2, 0.2 mM ATP, 0.5 mM DTT, mM sucrose) for 1 h on ice and denucleated by centrifugation for 1 h at 100,000×g, 4° C. 13 μM monomeric actin was polymerized in vitro by addition of 1/50 vol. […] The samples were centrifuged for 15 min at 10,000×g at room temperature to pellet “bundled filaments”. The resulting supernatant was centrifuged for 1 h at 100,000×g at room temperature to separate F-actin filaments […]. The fractions were boiled in SDS-sample buffer and analyzed on a 10% SDS-Polyacrylamide gel stained with Coomassie.

[1] = test system: actin comet tails in Xenopus egg extracts; assay: Actin comet-tail formation in cytoplasmic extracts; assay type: biochemical, Xenopus laevis
Description: In FIGS. 4A and 4B, in vitro polymerized actin forms comet tail from rhodamine-labeled actin added to Xenopus laevis egg cytoplasmic extract. This was set up according to the protocol in Taunton et al., J Cell Biol. 2000 Feb. 7; 148(3):519-30.
Crude Xenopus egg extract was prepared as described except that cytochalasin D was omitted (Murray and Kirschner, Nature. 1989 May 25; 339(6222):275-80). Cytosol and a heavy membrane fraction were prepared by centrifugation of the crude extract (2 h, 300.000 g max; BECKMAN SW-50 rotor). The viscous glycogen pellet beneath the membrane layer was discarded. Cytosol was further clarified by spinning for 15 min at 541,000 g max (BECKMAN TLA 100.3 rotor). Crude membranes (diluted with one volume of 2 M sucrose) and cytosol were snap frozen in separate aliquots for storage at −80° C. unless otherwise indicated. Clarified cytosol contained a small population of vesicles, but motility assays were far more robust (more comet tails over a longer time period) when cytosol was supplemented with the heavy membrane fraction.
For the standard assay, crude membranes in 1 M sucrose (20-μl aliquot, derived from ˜80 μl crude extract) were washed and resuspended in 14 μl buffer A (50 mM NaCl, 5 mM MgCl2, and 50 mM tris [pH 7.5]). To the membrane suspension were added 35 μl cytosol (derived from ˜80 μl crude extract), 0.3 μl rhodamine-labeled actin (prepared according to Kellogg et al., Development. 1988 August; 103(4):675-86), 3 μl PMA (20 μM stock in 10% DMSO), and 20 μl buffer A at 4° C. 20-μl samples were then warmed to room temperature. After 30-40 min, 2-μl aliquots were viewed with a Nikon E800 microscope to yield the photomicrographs of FIG. 4. Images were acquired with a Princeton Instruments cooled CCD camera (standard rhodamine filter set, Princeton Instruments, Trenton, N.J.) and analyzed with WINVIEW (Visitron System, Puchheim, Germany) or METAMORPH software (Princeton Instruments, Trenton, N.J.). Pixels having an intensity over a threshold value (set to a value greater than the background fluorescence in regions devoid of comet tails) were summed over 10 random fields to quantitate relative actin assembly.
Cytosol was supplemented with a crude membrane fraction, rhodamine-actin, 1 μM PMA and peptide SS2 or SS12 (1 μM). After incubating at room temperature for 20 min, samples were viewed by fluorescence. Actin comet tails formed in Xenopus cytoplasmic extracts where no SS2 or SS12 peptides were added as shown by the photographs A, B and E of FIG. 4.

actin/pyrene-actin = actin/pyrene-actin (Oryctolagus cuniculus, UniProt P68135); assay: Actin/pyrene-actin polymerization fluorescence (nucleating or capping activity); assay type: biochemical; settings: time-dependent fluorescence increase; data not shown
Text: Upon binding to ActA, the Arp2/3 complex has enhanced nucleating activity for actin polymerization (Skoble J, Portnoy D A, Welch M D, Three regions within ActA promote Arp2/3 complex-mediated actin nucleation and Listeria monocytogenes motility; J Cell Biol. […] Aug. 7; 150(3):527-38). We tested a possible involvement of the homologous sequence on nucleating or capping activity by following the time-dependent fluorescence increase upon actin/pyrene-actin polymerization in the presence of the synthetic peptide SS12.

[2] = test system: dextran-labeled electroporated cells; assay: Change in number of dextran-labeled cells after electroporation with peptide; assay type: cell-based; settings: for % change in cell number: dextran-labeled cells counted before and after 18 hrs incubation
Description: Electroporated cells were treated with fluorescent dextran plus peptide so those cells receiving the peptide could be identified. Typically a very small number of cells successfully incorporate substance during electroporation, making it difficult to identify those receiving peptide. Typically one sees 10-20% incorporation. But, there is good evidence showing that if a cell incorporates one component in buffer, it will incorporate all components. Thus, dextran can be used to identify those cells receiving peptide. After electroporation of cells with fluorescent dextran and the active peptide SEQ ID NO: 12, the dextran-labeled cells were initially counted and then incubated for 18 hrs. After incubation overnight, the dextran-labeled cells were once again counted. The following Tables 4 and 5 show the average change in dextran-labeled cells after the cells are electroporated and the peptide has invaded the cell body. The cell numbers of the SS12 treated peptide seemed to fluctuate after incubation with various concentrations of the SS12 peptide.

Sequence: GIVRKWISRFEVWPYL (SS12 active synthetic peptide)
- cell movement (MDA 231 cells; MDA 231 cells after peptide treatment): ceased movement
- effect on actin-filled lamellipodia (MDA 231 cells; MDA 231 cells electroporated with peptide): no longer have lamellipodia
- bundling of actin during in vitro polymerization (rabbit muscle actin): most active
- bundled actin upon inducing polymerization (rabbit muscle actin; 1:1 molar ratio peptide:actin, polymerization induced (PI +), FIGS. 6C, 6D): the bulk of the actin is bundled
- bundled actin with peptide alone (rabbit muscle actin; 1:1 molar ratio peptide:actin, polymerization not induced, FIGS. 6C, 6D): half of the actin bundled
- In vitro actin bundling activity (rabbit muscle actin; Tables 2 and 3, peptide co-polymerized with actin in vitro): active
- free F-actin band (rabbit muscle actin; molar ratio 10:1, FIG. 6E): very small bands
- free F-actin band (rabbit muscle actin; molar ratio 100:1, FIG. 6E lane 6): clearly no band of free F-actin
- form of actin (rabbit muscle actin; molar ratio peptide to actin 50, FIG. 6F): all of the actin is in the bundled form
- activity designation of the peptide in the sequence list (active / less active / inactive) (rabbit muscle actin; summary sequence table): SS12 active
- effect on actin comet tails ([1]; FIGS. 4C, 4D, 4F, concentration not given): complete disruption of the comet tails
- actin comet tail formation ([1]; peptide 1 μM, 1 μM PMA, 20 min at room temperature): little or no actin comet tail formation
- nucleating or capping activity (actin/pyrene-actin): did not show any nucleating or capping activity
- increase in cell population after incubation ([2]; compared with SS1 control peptide-treated cells): did not exhibit the expected increase in cell population
- % change in cell number [2]: −12.5%
- % change in cell number ([2]; peptide concentration 0.2 μM): +13.21%
- % change in cell number ([2]; peptide concentration 1.0 μM): −1.5%
- % change in cell number ([2]; peptide concentration 10.0 μM): −8.6%
